In ChEMBL document CHEMBL3397010, “Design, synthesis, and biological evaluation of air-stable nafuredin-γ analogs as complex I inhibitors” (Bioorg Med Chem, 2015):

Test: Inhibition of electron transport protein complex 1 in Ascaris suum mitochondria assessed as reduction in rhodoquinol-fumarate reductase activity by measuring NADH oxidation using NADH, sodium fumarate and decyl-rhodoquinone
Work on `CC[C@H](C)/C=C/C=C(\C)C[C@@H](C)/C=C/C=C/[C@@H](O)[C@]1(C)C=C(O)C(=O)O1` yielded an IC50 of 6 nM.
Compound `CC(C)=CCC/C(C)=C/CC/C(C)=C/CC[C@@H](O)[C@]1(C)CCCO1` has an IC50 of 500 nM.
With `CCc1ccc2ccc(Cc3cccc(/C=C/[C@@H](O)[C@]4(C)CCC(=O)O4)c3)cc2c1` the IC50 was 550 nM.
Compound `CC(C)=CCC/C(C)=C/CC/C(C)=C/CC[C@@H](O)[C@]1(C)CCC(=O)O1` has an IC50 of 820 nM.
With `C/C(=C\CCC(C)C)C[C@@H](C)CC/C=C/[C@@H](O)[C@]1(C)CCC(=O)O1` the IC50 was 300 nM.
In the case of `C/C(=C\CCC(C)C)CCCC/C=C/[C@@H](O)[C@]1(C)CCC(=O)O1`, the IC50 is reported as 340 nM.
`CC[C@H](C)CC/C=C(\C)C[C@@H](C)CC/C=C/[C@@H](O)[C@]1(C)CCC(=O)O1` showed an IC50 of 550 nM.
